By Cmax is commonly meant the peak of the concentration-time curve. A word on the Tmax: it is the time at which the peak concentration occurs.

SMILES strings stand for the structures. Where two headings read alike, the source gives them in different places.

For series [1] the following is noted: human, cited from earlier work.
For series [2] the following is noted: human, cited from earlier work. The source holds these as a separate data set.
The next series in a line: in vivo. The following applies: male, Beagle, dog.

Experimental for in vivo: The purpose of the study was to assess the pharmacokinetics and absolute bioavailability of dexmedetomidine in a group of five Beagle dogs (males, each aged 5 to 8 months and weighing between 7.5 and 9.2 kg) following sublingual spray administration of the different formulations described in Tables 1 and 2.
For sublingual administration, a spray application was administered by one depression of a pump device into the oral cavity under the tongue. In order to ensure proper pump priming, two actuations were performed prior to dosing. Following dose administration, serial blood samples were collected form each subject animal by venipuncture of a jugular vein as follows: 0 (predose), 0.083, 0.167, 0.25, 0.33, 0.5, 1, 2, and 6 hours post-sublingual dose. […] Blood samples were collected in vacutainer tubes containing K2EDTA as anticoagulant, and derived plasma samples were stored frozen until analyzed.

As for `Cc1cccc([C@H](C)c2cnc[nH]2)c1C` [dexmedetomidine, 5-[(1S)-1-(2,3-dimethylphenyl)ethyl]-1H-imidazole], in series [1] (buccal), the apparent elimination half-life is recorded as 1.9 h and the “time of maximum concentration” value is on record as “approximately 1.5 h”. Also, the mean buccal bioavailability in series [1] (solution held in mouth without swallowing) was 81.8%. Besides, in series [2] (i.m. administration), the absolute bioavailability is 73% and the “time to maximum concentration in blood” value is 1.6 to 1.7 h. In series [2] (i.m. dosing), the mean elimination half-life was 3 h. In addition, the mean elimination half-life in series [2] (i.v. dosing) was 1.5 h. In series [2] (transdermal administration), the absolute bioavailability is given as 88%, the mean elimination half-life is 5.6 h and the “time to maximum concentration in blood” value was 6 h. In “in vivo”, the peak level (Cmax) was 0.914 ng/mL and the Tmax is 0.333 h.

Values taken from US20110021588A1, “SUBLINGUAL DEXMEDITOMIDINE COMPOSITIONS AND METHODS OF USE THEREOF” (RECRO PHARMA, INC., priority 2009, published 2011).
